Laboratory results taken from patent publication US8946266B2, “Substituted triazole and imidazole derivatives as gamma secretase modulators” (Janssen Pharmaceuticals, Inc., priority 2009, dated 2015).
Where a name gives a salt, the structure may show the parent alone.

Key:
Aβ42 [1] = test: γ-secretase-modulating activity, Method 2: Aβ42 Alphalisa in supernatant of SKNBE2 cells carrying APP 695-wild type (Table 3b); assay type: cell-based; settings: overnight
Summary of the method: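 SKNBE2 cells expressing wild-type APP695 were incubated overnight at 37° C. with test compound. Secreted Aβ42 was then measured by AlphaLISA, using a C-terminal Aβ42 antibody paired with an N-terminal Aβ antibody. IC50 came from a 4-parameter fit of percent of compound-free control.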

Aβtotal [2] = test: γ-secretase-modulating activity, Method 2: Aβtotal Alphalisa in supernatant of SKNBE2 cells carrying APP 695-wild type (Table 3b); assay type: cell-based; settings: overnight, read-out: IC50 Aβtot
Summary of the method: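 SKNBE2 cells expressing wild-type APP 695 were incubated overnight at 37 °C, 5% CO2 with test compound at a range of concentrations. Aβtotal in supernatant was measured by AlphaLISA sandwich (N-terminal JRF/AβN/25 acceptor, biotinylated mid-region 4G8 donor); IC50 from 4-parameter fit of percent control versus log concentration.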

Aβtotal [3] = test: γ-secretase-modulating activity, Method 1: Aβtotal sandwich ELISA in supernatant of SKNBE2 cells carrying APP 695-wild type; assay type: cell-based; settings: Table 3a, 18 h, averaged IC50 values
Procedure: (§1) Pharmacology A) Screening of the Compounds of the Invention for γ-Secretase-Modulating Activity A1) Method 1
(§2) Screening was carried out using SKNBE2 cells carrying the APP 695-wild type, grown in Dulbecco's Modified Eagle's Medium/Nutrient mixture F-12 (DMEM/NUT-mix F-12) (HAM) provided by Gibco (cat no. 31330-38) containing 5% Serum/Fe supplemented with 1% non-essential amino acids. Cells were grown to near confluency.
(§3) The screening was performed using the assay as described in Citron et al (1997) Nature Medicine 3: 67. Briefly, cells were plated in a 96-well plate at about 10^5 cells/ml one day prior to addition of compounds. Compounds were added to the cells in Ultraculture (Lonza, BE12-725F) supplemented with 1% glutamine (Invitrogen, 25030-024) for 18 h. The media were assayed by two sandwich ELISAs, for Aβ42 and Aβtotal. Toxicity of the compounds was assayed by WST-1 cell proliferation reagent (Roche, 1 644 807) according to the manufacturer's protocol.
To quantify the amount of Aβtotal in the cell supernatant, samples and standards were added to a 6E10-coated plate. The plate was allowed to incubate overnight at 4° C. in order to allow formation of the antibody-amyloid complex. Following this incubation and subsequent wash steps a selective anti-Aβ-antibody conjugate (biotinylated 4G8) was added and incubated for a minimum of 1 h in order to allow formation of the antibody-Amyloid-antibody-complex. After incubation and appropriate wash steps, a Streptavidine-Peroxidase-Conjugate was added, followed 30 minutes later by an addition of Quanta Blu fluorogenic peroxidase substrate according to the manufacturer's instructions (Pierce Corp., Rockford, Ill.).

Aβ42 [4] = test: γ-secretase-modulating activity, Method 1: Aβ42 sandwich ELISA in supernatant of SKNBE2 cells carrying APP 695-wild type (Table 3a); assay type: cell-based; settings: 18 h, averaged IC50 values
Procedure: as §1, §2, §3
To quantify the amount of Aβ42 in the cell supernatant, commercially available Enzyme-Linked-Immunosorbent-Assay (ELISA) kits were used (Innotest® β-Amyloid(1-42), Innogenetics N.V., Ghent, Belgium). The Aβ42 ELISA was performed essentially according to the manufacturer's protocol. Briefly, the standards (dilutions of synthetic Aβ1-42) were prepared in polypropylene Eppendorf with final concentrations of 8000 down to 3.9 pg/ml (1/2 dilution step). Samples, standards and blanks (100 μl) were added to the anti-Aβ42-coated plate supplied with the kit (the capture antibody selectively recognizes the C-terminal end of the antigen). The plate was allowed to incubate 3 h at 25° C. in order to allow formation of the antibody-amyloid complex. Following this incubation and subsequent wash steps a selective anti-Aβ-antibody conjugate (biotinylated 3D6) was added and incubated for a minimum of 1 hour (h) in order to allow formation of the antibody-Amyloid-antibody-complex. After incubation and appropriate wash steps, a Streptavidine-Peroxidase-Conjugate was added, followed 30 minutes later by an addition of 3,3′,5,5′-tetramethylbenzidine (TMB)/peroxide mixture, resulting in the conversion of the substrate into a coloured product. This reaction was stopped by the addition of sulfuric acid (0.9 N) and the colour intensity was measured by means of photometry with an ELISA-reader with a 450 nm filter.
To obtain the values reported in Table 3a, the data were calculated as percentage of the maximum amount of amyloid Beta 42 measured in the absence of the test compound. The sigmoidal dose response curves were analyzed using non-linear regression analysis with percentage of the control plotted against the log concentration of the compound. A 4-parameter equation was used to determine the IC50. The values reported in Table 3a are averaged IC50 values.

Aβ42 [5] = test: In vivo efficacy, Method 2: brain soluble Aβ42 lowering 4 h after a single oral dose, ELISA (Table 4b); design: species or system mouse; settings: dose 30 mg/kg oral dosing
Summary of the method: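 Overnight-fasted non-transgenic rodents got a single oral dose of 30 mg/kg in 20% Captisol or 20% hydroxypropyl β-cyclodextrin and were killed 4 h later. Right-hemisphere soluble fraction (0.4% DEA/50 mM NaCl extract, neutralised) was assayed for Aβ42 by sandwich ELISA with fluorogenic read-out, compared with untreated animals.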

Aβtotal [6] = test: In vivo efficacy, Method 2: brain soluble Aβtotal lowering 4 h after a single oral dose, ELISA (Table 4b); design: species or system mouse; settings: dose 30 mg/kg oral dosing
Summary of the method: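 Non-transgenic mice or rats, fasted overnight, received a single oral dose (30 mg/kg) in 20% Captisol or 20% hydroxypropyl β-cyclodextrin, or vehicle, and were sacrificed after 4 h. Right brain hemisphere was extracted in 0.4% DEA/50 mM NaCl, and soluble Aβtotal in the high-speed supernatant was measured by sandwich ELISA (JRF/rAβ/2 capture, biotinylated 4G8 detection, fluorogenic read-out).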

Row | SMILES | IC50 (Aβ42 [1]; Homo sapiens) [µM] | IC50 (Aβtotal [2]; Homo sapiens) [µM] | melting point [°C] | other results
1 | COc1cc(-c2nc(Nc3ccccc3C)n(C)n2)ccc1-n1cnc(C)c1 [Compound 97] | 0.049 | > 10 | 159.4 | –
2 | COc1cc(-c2nc(Nc3cccc(C(F)(F)F)n3)n(C)n2)ccc1-n1cnc(C)c1 [Compound 236] | 0.575 | > 10 | 240 | –
3 | COc1cc(-c2nc(C)c(-c3cccc(C(F)(F)F)c3)[nH]2)ccc1-n1cnc(C)c1 [Compound 12] | 0.033 | 3.63 | – | IC50 (Aβtotal [3]; Homo sapiens): > 3 µM; IC50 (Aβ42 [4]; Homo sapiens): 0.09 µM
4 | COc1cc(-c2nc3n(n2)CCCC3c2ccc(F)cc2C)ccc1-n1cnc(C)c1 (stereo not shown) [Compound 258] | 0.062 | > 10 | 241.8 | –
5 | COc1cc(-c2nc3n(n2)CCCN3c2ccccc2C(F)(F)F)ccc1-n1cnc(C)c1 [Compound 18] | 0.076 | > 10 | 211.6 | –
6 | COc1cc(-c2nc(C(=O)c3ccc(F)cc3)n(C)n2)ccc1-n1cnc(C)c1 [Compound 21] | 6.92 | > 10 | 145.3 | –
7 | COc1cc(-c2nc3n(n2)CCN(C)C3c2ccccc2C(F)(F)F)ccc1-n1cnc(C)c1 (stereo not shown) [Compound 275] | 0.269 | > 10 | 154.26 | –
8 | COc1cc(-c2nc(CC(C)C)c(C)[nH]2)ccc1-n1cnc(C)c1 [Compound 26] | – | – | – | IC50 (Aβtotal [3]): > 3 µM; IC50 (Aβ42 [4]): 0.76 µM
9 | COc1cc(-c2nc3cncc(-c4ccc(F)cc4C)n3n2)ccc1-n1cnc(C)c1 [Compound 295] | 0.537 | > 10 | 210.7 | –
10 | COc1cc(-c2nc3n(n2)CCCC3c2ccccc2C(F)(F)F)ccc1-n1cnc(C)c1 (stereo not shown) [Compound 10] | 0.025 | 8.32 | 218 | –
11 | COc1cc(-c2nc3n(n2)CCNC3c2ccccc2C(F)(F)F)ccc1-n1cnc(C)c1 (stereo not shown) [Compound 278] | 0.398 | > 10 | 183 | –
12 | COc1cc(-c2nc(-c3ccccc3)c(C)[nH]2)ccc1-n1ncnc1C [Compound 299] | – | – | – | IC50 (Aβ42 [1]): 8.13 µM; IC50 (Aβtotal [3]): > 3 µM; IC50 (Aβ42 [4]): > 3 µM; IC50 (Aβtotal [2]): > 10 µM
13 | COc1nc(-c2nc(Nc3cc(C(F)(F)F)ccc3F)n(C)n2)ccc1-n1cnc(C)c1 [Compound 154] | 0.017 | > 10 | 230.1 | –
14 | COc1cc(-c2nc3nccc(-c4ccccc4C(F)(F)F)n3n2)ccc1-n1cnc(C)c1 [Compound 290] | 0.224 | > 10 | 191 | –
15 | COc1cc(-c2nc3c(-c4ccccc4C(F)(F)F)nccn3n2)ccc1-n1cnc(C)c1 [Compound 294] | 0.537 | > 10 | 176.9 | –
16 | COc1cc(-c2nc(Nc3cc(C(C)(C)O)ccc3F)n(C)n2)ccc1-n1cnc(C)c1 [Compound 175] | 0.089 | > 10 | 193.8 | –
17 | COc1cc(-c2nc(-c3ccccc3Cl)n(C)n2)ccc1-n1cnc(C)c1 [Compound 2] | 0.468 | > 10 | 149.3 | –
18 | COc1cc(-c2nc3nc(-c4ccccc4C(F)(F)F)ccn3n2)ccc1-n1cnc(C)c1 [Compound 291] | 0.045 | 9.77 | 193.4 | –
19 | COc1cc(-c2nc(Nc3ccc(F)cc3C)n(C)n2)ccc1-n1cnc(C)c1 [Compound 130] | 0.06 | > 10 | 189.7 | –
20 | COc1cc(-c2nc(Sc3cccc(C(F)(F)F)c3)n(C)n2)ccc1-n1cnc(C)c1 (as salt: HCl) (hydrate or solvate) [Compound 249] | – | – | 78.4 | –
21 | COc1ccc(CO)c(Nc2nc(-c3ccc(-n4cnc(C)c4)c(OC)c3)nn2C)c1 [Compound 200] | 0.158 | > 10 | 235.2 | –
22 | COc1cc(-c2nc(-c3ccc(-n4cnc(C)c4)c(OC)c3)n[nH]2)ccc1Cl [Compound 20] | 0.257 | > 10 | 262.6 | –
23 | COc1cc(-c2nc(-c3ccccc3Cl)n(C(C)C)n2)ccc1-n1cnc(C)c1 [Compound 66] | 0.562 | > 10 | 159 | –
24 | COc1cc(-c2nc(Nc3ccccc3C(F)(F)F)n(C)n2)ccc1-n1cnc(C)c1 [Compound 157] | 0.063 | > 15 | 159.3 | –
25 | COc1cc(-c2nc(-c3cc(F)c(F)c(F)c3)n(C(C)C)n2)ccc1-n1cnc(C)c1 [Compound 84] | 0.316 | > 10 | 122.23 | –
26 | COc1cc(-c2nc3n(n2)CCOC3c2cc(OC(F)(F)F)ccc2F)ccc1-n1cnc(C)c1 (stereo not shown) [Compound 281] | 0.076 | > 10 | 232.1 | –
27 | COc1cc(-c2nc3n(n2)CCCC3c2ccc(F)cc2)ccc1-n1cnc(C)c1 (stereo not shown) [Compound 251] | 0.245 | > 10 | 190.5 | –
28 | COc1cc(-c2nc(Nc3ccccc3C(C)C)n(C)n2)ccc1-n1cnc(C)c1 [Compound 99] | – | – | – | Aβ42 (% Ctrl) _Mean (Aβ42 [5]): 58 % Ctrl; IC50 (Aβ42 [1]): 0.019 µM; Aβtotal (% Ctrl) _Mean (Aβtotal [6]): −2 % Ctrl; IC50 (Aβtotal [2]): > 10 µM
29 | COc1nc(-c2nc(Nc3cccc(C(F)(F)F)c3F)n(C)n2)ccc1-n1cnc(C)c1 [Compound 167] | – | – | – | Aβ42 (% Ctrl) _Mean (Aβ42 [5]): 52 % Ctrl; IC50 (Aβ42 [1]): 0.038 µM; Aβtotal (% Ctrl) _Mean (Aβtotal [6]): −1 % Ctrl; IC50 (Aβtotal [2]): > 15 µM
